Measurements published in patent publication US9458135B2, “Dihydroquinoline-2-one derivatives” (Hoffmann-La Roche Inc., priority 2014, dated 2016).

Tests used:
human CYP11B2 = human CYP11B2 (Homo sapiens (Human), UniProt P19099); experiment: G-402 cellular enzyme assay, human CYP11B2 (aldosterone release, HTRF); type: cell-based; settings: G-402 cells expressing human CYP11B2; 1 μM Deoxycorticosterone
Source text: (§1) Herein we identified the use of the G-402 cell line as a host cell to ectopically express (transiently or stably) enzymes of the CYP11 family. Specifically we developed stable G-402 cells expressing ectopically human CYP11B1, human CYP11B2, human CYP11A1, cynmolgus CYP11B1 or cynomolgus CYP11B2 enzyme activity. Importantly the identified cell line G-402 expresses co-factors (adrenodoxin and adrenodoxin reductase) important for the activity of the CYP11 family and no relevant enzyme activity of the CYP11 family (in comparison to H295R cells) was detected in these cells. Therefore the G-402 cell line is uniquely suited as a host cell for the ectopic expression of enzymes from the CYP11 family.
(§2) The expression plasmids contains the ORF for either huma/cyno CYP11B1 or CYP11B2 under the control of a suitable promoter (CMV-promoter) and a suitable resistance marker (neomycin). Using standard techniques the expression plasmid is transfected into G-402 cells and these cells are then selected for expressing the given resistance markers. Individual cell-clones are then selected and assessed for displaying the desired enzymatic activity using 11-Deoxycorticosterone (Cyp11B2) or 11-Deoxycortisol (Cyp11B1) as a substrate.
(§3) G-402 cells expressing CYP11 constructs were established as described above and maintained in McCoy's 5a Medium Modified, ATCC Catalog No. 30-2007 containing 10% FCS and 400 μg/ml G418 (Geneticin) at 37° C. under an atmosphere of 5% CO2/95% air. Cellular enzyme assays were performed in DMEM/F12 medium containing 2.5% charcoal treated FCS and appropriate concentration of substrate (0.3-10 uM 11-Deoxycorticosterone, 11-Deoxycortisol or Corticosterone). For assaying enzymatic activity, cells were plated onto 96 well plates and incubated for 16 h. An aliquot of the supernatant is then transferred and analyzed for the concentration of the expected product (Aldosterone for CYP11B2; Cortisol for CYP11B1). The concentrations of these steroids can be determined using HTRF assays from CisBio analyzing either Aldosterone or Cortisol.
(§4) Inhibition of the release of produced steroids can be used as a measure of the respective enzyme inhibition by test compounds added during the cellular enzyme assay. The dose dependent inhibition of enzymatic activity by a compound is calculated by means of plotting added inhibitor concentrations (x-axes) vs. measured steroid/product level (y-axes). The inhibition is then calculated by fitting the following 4-parameter sigmoidal function (Morgan-Mercer-Flodin (MMF) model) to the raw data points using the least squares method:
(§5) [formula] wherein, A is the maximum y value, B is the EC50 factor determined using XLFit, C is the minimum y value and D is the slope value.
(§6) EC50 values for compounds claimed herein were tested with the G402-based assay system described. Cyp11B2 enzyme activity was tested in presence of 1 μM Deoxycorticosterone and variable amounts of inhibitors; Cyp11B1 enzyme activity was tested in presence of 1 μM Deoxycortisol and variable amounts of inhibitors.

human CYP11B1 = human CYP11B1 (Homo sapiens (Human), UniProt P15538); experiment: G-402 cellular enzyme assay, human CYP11B1 (cortisol release, HTRF); type: cell-based; settings: G-402 cells expressing human CYP11B1; 1 μM Deoxycortisol
Source text: as §1, §2, §3, §4, §5, §6

human CYP11B2, sequence (P19099 25-503): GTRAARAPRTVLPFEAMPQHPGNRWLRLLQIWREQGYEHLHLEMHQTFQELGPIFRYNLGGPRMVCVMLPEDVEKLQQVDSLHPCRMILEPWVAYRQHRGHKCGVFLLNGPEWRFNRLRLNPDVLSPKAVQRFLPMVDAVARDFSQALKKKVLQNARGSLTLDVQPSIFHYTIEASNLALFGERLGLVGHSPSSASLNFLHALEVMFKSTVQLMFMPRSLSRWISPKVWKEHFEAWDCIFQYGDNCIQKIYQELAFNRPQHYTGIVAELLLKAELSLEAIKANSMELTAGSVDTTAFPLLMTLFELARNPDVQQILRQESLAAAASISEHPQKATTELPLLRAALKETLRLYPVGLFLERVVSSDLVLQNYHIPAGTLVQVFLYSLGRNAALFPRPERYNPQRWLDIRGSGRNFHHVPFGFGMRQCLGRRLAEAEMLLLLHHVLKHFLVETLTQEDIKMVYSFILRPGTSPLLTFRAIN
human CYP11B1, sequence (P15538 25-503): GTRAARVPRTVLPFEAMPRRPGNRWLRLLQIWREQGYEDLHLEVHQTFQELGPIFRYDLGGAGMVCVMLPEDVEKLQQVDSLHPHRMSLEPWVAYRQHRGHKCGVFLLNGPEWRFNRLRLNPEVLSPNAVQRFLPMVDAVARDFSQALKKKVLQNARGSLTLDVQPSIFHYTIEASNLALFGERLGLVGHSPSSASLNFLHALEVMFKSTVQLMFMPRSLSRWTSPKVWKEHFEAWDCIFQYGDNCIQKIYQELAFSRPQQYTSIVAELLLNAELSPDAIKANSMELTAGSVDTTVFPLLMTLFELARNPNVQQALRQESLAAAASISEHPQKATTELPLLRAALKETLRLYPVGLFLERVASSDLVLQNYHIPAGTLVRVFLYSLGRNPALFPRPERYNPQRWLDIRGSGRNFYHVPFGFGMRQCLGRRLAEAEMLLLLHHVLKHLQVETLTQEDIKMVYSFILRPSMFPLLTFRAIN

| EC50 (human CYP11B2) [nM] | EC50 (human CYP11B1) [nM] | Structure (SMILES) |
| --- | --- | --- |
| 0.2 | 9.1 | CN1C(=O)CCc2cc(-c3cncc(COc4cccc(Cl)n4)c3)ccc21 [Example 1, 6-[5-(6-Chloro-pyridin-2-yloxymethyl)-pyridin-3-yl]-1-methyl-3,4-dihydro-1H-quinolin-2-one] |
| 0.2 | 6.3 | CN1C(=O)CCc2cc(-c3cncc(COc4ccc(F)cn4)c3)ccc21 [Example 2, 6-[5-(5-Fluoro-pyridin-2-yloxymethyl)-pyridin-3-yl]-1-methyl-3,4-dihydro-1H-quinolin-2-one] |
| 0.1 | 4.8 | Cc1cccc(OCc2cncc(-c3ccc4c(c3)CCC(=O)N4C)c2)n1 [Example 3, 1-Methyl-6-[5-(6-methyl-pyridin-2-yloxymethyl)-pyridin-3-yl]-3,4-dihydro-1H-quinolin-2-one] |
| 0.4 | 3.6 | Cc1cc(OCc2cncc(-c3ccc4c(c3)CCC(=O)N4C)c2)nc(C(F)(F)F)c1 [Example 4, 1-Methyl-6-[5-(4-methyl-6-trifluoromethyl-pyridin-2-yloxymethyl)-pyridin-3-yl]-3,4-dihydro-1H-quinolin-2-one] |
| 0.1 | 1.7 | Cc1ccnc(OCc2cncc(-c3ccc4c(c3)CCC(=O)N4C)c2)c1 [Example 5, 1-Methyl-6-[5-(4-methyl-pyridin-2-yloxymethyl)-pyridin-3-yl]-3,4-dihydro-1H-quinolin-2-one] |
| 0.1 | 1.9 | CN1C(=O)CCc2cc(-c3cncc(COc4ccc(Cl)cn4)c3)ccc21 [Example 6, 6-[5-(5-Chloro-pyridin-2-yloxymethyl)-pyridin-3-yl]-1-methyl-3,4-dihydro-1H-quinolin-2-one] |
| 0.2 | 8.7 | CN1C(=O)CCc2cc(-c3cncc(COc4ccccn4)c3)ccc21 [Example 7, 1-Methyl-6-[5-(pyridin-2-yloxymethyl)-pyridin-3-yl]-3,4-dihydro-1H-quinolin-2-one] |
| 2.3 | 72.8 | CN1C(=O)CCc2cc(-c3cncc(COc4ncccc4C(F)(F)F)c3)ccc21 [Example 8, 1-Methyl-6-[5-(3-trifluoromethyl-pyridin-2-yloxymethyl)-pyridin-3-yl]-3,4-dihydro-1H-quinolin-2-one] |
| 0.1 | 4.2 | Cc1nccc(OCc2cncc(-c3ccc4c(c3)CCC(=O)N4C)c2)n1 [Example 9, 1-Methyl-6-[5-(2-methyl-pyrimidin-4-yloxymethyl)-pyridin-3-yl]-3,4-dihydro-1H-quinolin-2-one] |
| 0.3 | 12.3 | CN1C(=O)CCc2cc(-c3cncc(COc4ccnc(C(F)(F)F)n4)c3)ccc21 [Example 10, 1-Methyl-6-[5-(2-trifluoromethyl-pyrimidin-4-yloxymethyl)-pyridin-3-yl]-3,4-dihydro-1H-quinolin-2-one] |
| 0.1 | 0.8 | CN1C(=O)CCc2cc(-c3cncc(COc4cnc(Cl)nc4)c3)ccc21 [Example 11, 6-[5-(2-Chloro-pyrimidin-5-yloxymethyl)-pyridin-3-yl]-1-methyl-3,4-dihydro-1H-quinolin-2-one] |
| 3.6 | 101 | CN1C(=O)CCc2cc(-c3cncc(COc4ncccn4)c3)ccc21 [Example 12, 1-Methyl-6-[5-(pyrimidin-2-yloxymethyl)-pyridin-3-yl]-3,4-dihydro-1H-quinolin-2-one] |
| 0.3 | 0.9 | CN1C(=O)CCc2cc(-c3cncc(CSc4nc5ccccc5o4)c3)ccc21 [Example 13, 6-[5-(Benzooxazol-2-ylsulfanylmethyl)-pyridin-3-yl]-1-methyl-3,4-dihydro-1H-quinolin-2-one] |
| 0.012 | 0.1 | Cc1cccc(SCc2cncc(-c3ccc4c(c3)CCC(=O)N4C)c2)n1 [Example 14, 1-Methyl-6-[5-(6-methyl-pyridin-2-ylsulfanylmethyl)-pyridin-3-yl]-3,4-dihydro-1H-quinolin-2-one] |
| 0.5 | 14.3 | CN1C(=O)CCc2cc(-c3cncc(CSc4ncccc4C(F)(F)F)c3)ccc21 [Example 15, 1-Methyl-6-[5-(3-trifluoromethyl-pyridin-2-ylsulfanylmethyl)-pyridin-3-yl]-3,4-dihydro-1H-quinolin-2-one] |
| 1.4 | 45.7 | CN1C(=O)CCc2cc(-c3cncc(CSc4ncccc4Cl)c3)ccc21 [Example 16, 6-[5-(3-Chloro-pyridin-2-ylsulfanylmethyl)-pyridin-3-yl]-1-methyl-3,4-dihydro-1H-quinolin-2-one] |
| 0.2 | 0.9 | CN1C(=O)CCc2cc(-c3cncc(COc4cc(C#N)ccn4)c3)ccc21 [Example 17, 2-[5-(1-Methyl-2-oxo-1,2,3,4-tetrahydro-quinolin-6-yl)-pyridin-3-ylmethoxy]-isonicotinonitrile] |
| 0.3 | 7.5 | CN1C(=O)CCc2cc(-c3cncc(COc4cccc(F)n4)c3)ccc21 [Example 18, 6-[5-(6-Fluoro-pyridin-2-yloxymethyl)-pyridin-3-yl]-1-methyl-3,4-dihydro-1H-quinolin-2-one] |
| 14.1 | 997 | CN1C(=O)CCc2cc(-c3cncc(COc4ncccc4F)c3)c(F)cc21 [Example 19, 7-Fluoro-6-[5-(3-fluoro-pyridin-2-yloxymethyl)-pyridin-3-yl]-1-methyl-3,4-dihydro-1H-quinolin-2-one] |
| 0.1 | 1.6 | CN1C(=O)CCc2cc(-c3cncc(COc4ccc(Cl)cn4)c3)c(F)cc21 [Example 20, 6-[5-(5-Chloro-pyridin-2-yloxymethyl)-pyridin-3-yl]-7-fluoro-1-methyl-3,4-dihydro-1H-quinolin-2-one] |
| 0.3 | 16.3 | CN1C(=O)CCc2cc(-c3cncc(COc4cccc(Cl)n4)c3)c(F)cc21 [Example 21, 6-[5-(6-Chloro-pyridin-2-yloxymethyl)-pyridin-3-yl]-7-fluoro-1-methyl-3,4-dihydro-1H-quinolin-2-one] |
| 2 | 216 | Cc1cccc(OCc2cncc(-c3cc4c(cc3F)N(C)C(=O)CC4)c2)n1 [Example 22, 7-Fluoro-1-methyl-6-[5-(6-methyl-pyridin-2-yloxymethyl)-pyridin-3-yl]-3,4-dihydro-1H-quinolin-2-one] |
| 0.1 | 4.1 | Cc1ccnc(OCc2cncc(-c3cc4c(cc3F)N(C)C(=O)CC4)c2)c1 [Example 23, 7-Fluoro-1-methyl-6-[5-(4-methyl-pyridin-2-yloxymethyl)-pyridin-3-yl]-3,4-dihydro-1H-quinolin-2-one] |
| 0.7 | 105 | Cc1cccc(OCc2cncc(-c3cc4c(cc3F)N(C)C(=O)CC4)c2C)n1 [Example 24, 7-Fluoro-1-methyl-6-[4-methyl-5-(6-methyl-pyridin-2-yloxymethyl)-pyridin-3-yl]-3,4-dihydro-1H-quinolin-2-one] |
| 1.3 | 116 | Cc1c(COc2cccc(Cl)n2)cncc1-c1cc2c(cc1F)N(C)C(=O)CC2 [Example 25, 6-[5-(6-Chloro-pyridin-2-yloxymethyl)-4-methyl-pyridin-3-yl]-7-fluoro-1-methyl-3,4-dihydro-1H-quinolin-2-one] |
| 5 | 866 | Cc1c(COc2ncccc2F)cncc1-c1cc2c(cc1F)N(C)C(=O)CC2 [Example 26, 7-Fluoro-6-[5-(3-fluoro-pyridin-2-yloxymethyl)-4-methyl-pyridin-3-yl]-1-methyl-3,4-dihydro-1H-quinolin-2-one] |
| 0.2 | 20.8 | Cc1c(COc2cccc(F)n2)cncc1-c1cc2c(cc1F)N(C)C(=O)CC2 [Example 27, 7-Fluoro-6-[5-(6-fluoro-pyridin-2-yloxymethyl)-4-methyl-pyridin-3-yl]-1-methyl-3,4-dihydro-1H-quinolin-2-one] |
| 2.2 | 14.5 | Cc1cccc(NC(=O)Cc2cncc(-c3ccc4c(c3)CCC(=O)N4C)c2)n1 [Example 28, 2-[5-(1-Methyl-2-oxo-1,2,3,4-tetrahydro-quinolin-6-yl)-pyridin-3-yl]-N-(6-methyl-pyridin-2-yl)-acetamide] |
